Experimental data from article doi:10.1101/119818v1 (biorxiv, 2017).

Molecular target: T1, PARP3 (Homo sapiens, UniProt Q9Y6F1)
T1 sequence (Q9Y6F1 1-533): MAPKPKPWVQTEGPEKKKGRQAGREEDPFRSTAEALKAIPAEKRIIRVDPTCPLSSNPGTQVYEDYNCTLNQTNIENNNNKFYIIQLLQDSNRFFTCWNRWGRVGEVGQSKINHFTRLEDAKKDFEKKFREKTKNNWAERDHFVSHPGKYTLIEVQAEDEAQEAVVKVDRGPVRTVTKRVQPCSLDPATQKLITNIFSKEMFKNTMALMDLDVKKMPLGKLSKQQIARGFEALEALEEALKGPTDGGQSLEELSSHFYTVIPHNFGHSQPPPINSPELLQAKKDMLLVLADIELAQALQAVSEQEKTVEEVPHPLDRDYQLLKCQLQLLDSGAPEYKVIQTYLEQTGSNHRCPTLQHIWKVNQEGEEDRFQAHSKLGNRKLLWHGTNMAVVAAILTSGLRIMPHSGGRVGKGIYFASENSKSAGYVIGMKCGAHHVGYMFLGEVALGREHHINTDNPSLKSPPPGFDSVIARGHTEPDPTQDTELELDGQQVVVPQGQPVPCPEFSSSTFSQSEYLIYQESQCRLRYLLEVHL
Experiment: in vitro enzymatic inhibition assay, concentration response
Assay type: biochemical

`NC(=O)c1cccc2[nH]c(-c3ccc([C@@H]4CCCN4)cc3F)nc12` [A-966492] showed an IC50 of 728 nM.
